This is an account of results in publication PMC9405955, “Plasmodium falciparum Nicotinamidase as A Novel Antimalarial Target” (Biomolecules, 2022).

For data set [1], the target named is T1, P. falciparum nicotinamidase (PfNic) (Plasmodium falciparum, UniProt O97284).
T1 construct: gene PF3D7_0320500
T1 sequence (O97284 1-429): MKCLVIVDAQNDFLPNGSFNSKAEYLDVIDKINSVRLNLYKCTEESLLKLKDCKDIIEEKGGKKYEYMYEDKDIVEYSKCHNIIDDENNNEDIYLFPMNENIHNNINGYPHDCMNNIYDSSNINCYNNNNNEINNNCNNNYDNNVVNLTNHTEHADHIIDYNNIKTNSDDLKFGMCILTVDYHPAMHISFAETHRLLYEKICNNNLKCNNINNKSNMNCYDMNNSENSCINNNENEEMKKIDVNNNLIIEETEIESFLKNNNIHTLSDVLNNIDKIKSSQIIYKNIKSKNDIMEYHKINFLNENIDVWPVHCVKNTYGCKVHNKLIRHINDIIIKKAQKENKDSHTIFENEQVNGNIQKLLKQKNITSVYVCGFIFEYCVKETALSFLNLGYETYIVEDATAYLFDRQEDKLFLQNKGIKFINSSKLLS
Put plainly: […]-nicotinamide to nicotinic acid conversion (HPLC, scintillation counting) in lysates of parasites pre-treated with […] compound for […] h. It counts as cell-based.

Substrate in the data set “purified protein”: NC(=O)c1cccnc1
Put plainly: purified protein. It counts as biochemical, Plasmodium falciparum.

As for `Cc1cncc(C=O)c1` [5-methyl-nicotinaldehyde], the “14C-nicotinamide to nicotinic acid conversion (HPLC, scintillation counting) in” value in data set [1] is “indicating 5-Me-nicotinaldehyhde was able to inhibit P. falciparum nicotinamidase in the lysate”.

B1: P. falciparum nicotinamidase (PfNic) (Plasmodium falciparum 3D7) (protein)
chain: T1 sequence (O97284 1-429)
notes: 429 amino acids, N-terminal histidine tag (pet28a), expressed in Rosetta (DE3) E. coli
In the case of B1, the Km in “purified protein” turned out to be 3.0 ± 0.9 µM.

The term Km denotes the substrate concentration at which the rate is half of its maximum.
